Legend:
[1] = test system: Human-derived dermal papilla cells (DPCs); assay: Enhancement of mitochondrial activity of dermal papilla cells (JC-1 method); assay type: cell-based; details: for Mitochondrial activity of dermal papilla cells (%): incubated for a day, percentage of the control group as 100; for Effect on mitochondrial activity of dermal papilla cells (in words): summary of Table 4
Experimental: Human-derived dermal papilla cells (DPCs) were purchased from PromoCell. The DPCs were cultured in DMEM (Hyclone Inc., UT, USA) containing 5% fetal bovine serum (FBS; GIBCO, NY, USA), 100 units/mL penicillin and 100 μg/mL streptomycin under the condition of 37° C. and 5% CO2. The cultured DPCs were seeded onto a 96-well plate at 3,000 cells/well and then cultured for 24 hours under a 0.1% serum condition. […] After the incubation, the degree of cell proliferation was evaluated by the JC-1 method. The cell culture was treated and incubated with JC-1 at 1:100 for 1 hour. 1 hour later, the fluorescence of each well was measured at 590 nm and 530 nm. All the experiments were 3 times and the fluorescence intensity was averaged. The result was expressed as percentage of the control group as 100.

[2] = test system: Human-derived dermal papilla cells (DPCs); assay: Enhancement of activity of dermal papilla cells (CCK-8 method); assay type: cell-based; details: for Activity of dermal papilla cells (%): incubated for a day, percentage of the control group as 100; for Effect on activity and proliferation of dermal papilla cells (in words): summary of Table 3
Experimental: Human-derived dermal papilla cells (DPCs) were purchased from PromoCell. The DPCs were cultured in DMEM (Hyclone Inc., UT, USA) containing 5% fetal bovine serum (FBS; GIBCO, NY, USA), 100 units/mL penicillin and 100 μg/mL streptomycin under the condition of 37° C. and 5% CO2. The cultured DPCs were seeded onto a 96-well plate at 3,000 cells/well and then cultured for 24 hours under a 0.1% serum condition. […] After the incubation, the enhancement of cellular activity was evaluated by the CCK method. The cell culture was treated and incubated with CCK-8 at 1:10 for 1 hour. 1 hour later, the absorbance of each well was measured at 450 nm. All the experiments were 3 times and the absorbance was averaged. The result was expressed as percentage of the control group as 100.

androgen receptor = assay: Androgenic activity: MMTV-Luc transcriptional activation assay in 22Rv1 cells with DHT; assay type: cell-based, human; details: for Inhibition of androgenic activity (%): 10 μg/mL together with 1 nM DHT, 24 hours; for Effect of inhibiting androgenic activity (in words): summary of Table 6
Experimental: The stable cell line was maintained by subculturing using RPMI1640 and 10% fetal bovine serum (GIBCO BRL, Gaithersburg, MD, USA). For transcriptional activation assay, the cells were seeded in a 96-well plate, with 25,000 cells per well, while replacing the medium with phenol red-free RPMI1640 containing 5% charcoal-stripped fetal bovine serum. […] The cell culture was treated and incubated with CCK-8 at 1:10 for 2 hours. 2 hour later, the absorbance of each well was measured at 450 nm. All the experiments were 3 times and the absorbance was averaged.

Wnt/β-catenin signaling = assay: Wnt/β-catenin luciferase reporter assay in Wnt Reporter HEK293A cells; assay type: cell-based; details: for Wnt signaling activity for activating hair follicles (%): untreated group 100%; for Wnt signaling activity (in words): summary of Table 5
Text: In general, the Wnt/β-catenin signaling activated in the dermal papillae during transition from the […] to the anagen transition in the hair growth cycle begins as the hair starts to grow and occurs throughout the anagen phase. In the telogen and catagen phases, the Wnt/β-catenin signaling decreases or disappears, resulting in degeneration of hair follicles and shedding of hair. Therefore, it was investigated in the examples how much the momordin Ic, platycodin D2, polygalacin D or pseudoginsenoside RT5 of the present disclosure contributes to the amplification of Wnt/β-catenin signaling.
Wnt3a protein was used as a positive control group for amplifying Wnt/β-catenin signaling, and DMSO was used as a negative control group. After seeding Wnt Reporter HEK293A cells in a 96-well culture plate, with 3×10^4 cells per well, and then treating with the momordin Ic, platycodin D2, polygalacin D or pseudoginsenoside RT5 of the present disclosure as described in Table 5, reporter assay was conducted using a Promega's luciferase assay kit (E1960). The experiment was conducted according to the manufacturer's instructions and the activity of the Wnt/β-catenin promoter was measured using a luminometer (Victor; PerkinElmer, Waltham, Massachusetts, USA).

Compound	Mitochondrial activity of dermal papilla cells (%) ([1]; 10 μg/mL)	Effect on mitochondrial activity of dermal papilla cells (in words) [1]	Activity of dermal papilla cells (%) ([2]; 10 μg/mL)	Effect on activity and proliferation of dermal papilla cells (in words) [2]	Inhibition of androgenic activity (%) (androgen receptor)	Effect of inhibiting androgenic activity (in words) (androgen receptor)	Wnt signaling activity for activating hair follicles (%) (Wnt/β-catenin signaling; 10 μg/mL)	Wnt signaling activity (in words) (Wnt/β-catenin signaling)	Mitochondrial activity of dermal papilla cells (%) ([1]; 2 μg/mL)	Activity of dermal papilla cells (%) ([2]; 2 μg/mL)	Wnt signaling activity for activating hair follicles (%) (Wnt/β-catenin signaling; 2 μg/mL)
CC(C)=CCC[C@](C)(O[C@@H]1O[C@H](CO)[C@@H](O)[C@H](O)[C@H]1O)[C@H]1CC[C@]2(C)[C@@H]1[C@H](O)C[C@@H]1[C@@]3(C)CC[C@H](O[C@@H]4O[C@H](CO)[C@@H](O)[C@H](O)[C@H]4O[C@@H]4O[C@H](CO)[C@@H](O)[C@H](O)[C@H]4O)C(C)(C)[C@@H]3[C@@H](O)C[C@]12C [Vina-ginsenoside R4, vina-ginsenoside R4]	111%	superior effect of enhancing the mitochondrial activity	137%	superior effect of enhancing the activity of dermal papilla cells	4%	–	–	–	–	–	–
CC(C)=C[C@@H]1CO[C@]23C[C@@]4(CO2)[C@@H](CC[C@@H]2[C@@]5(C)CC[C@H](O[C@H]6OC[C@H](O)[C@H](O[C@H]7O[C@H](COS(=O)(=O)O)[C@@H](O)[C@H](O)[C@H]7O)[C@H]6O[C@@H]6O[C@@H](CO)[C@H](O)[C@H]6O)C(C)(C)[C@@H]5CC[C@]24C)[C@H]3[C@@]1(C)O [Bacopaside I, bacopaside I]	110%	superior effect of enhancing the mitochondrial activity	133%	superior effect of enhancing the activity of dermal papilla cells	6%	–	–	–	–	–	–
C[C@@H]1O[C@@H](O[C@H]2[C@H](O[C@H]3[C@H](O[C@H]4CC[C@]5(C)[C@H]6CC=C7[C@@H]8CC(C)(C)CC[C@]8(C(=O)O)CC[C@@]7(C)[C@]6(C)CC[C@H]5C4(C)C)OC[C@H](O)[C@@H]3O)O[C@H](CO)[C@@H](O)[C@@H]2O)[C@H](O)[C@H](O)[C@H]1O [Raddeanin A, raddeanin A]	–	–	130%	superior effect of enhancing the activity of dermal papilla cells	10%	–	–	–	–	–	–
C[C@@H]1O[C@@H](O[C@H]2[C@H](OC(=O)[C@]34CCC(C)(C)C[C@H]3C3=CC[C@@H]5[C@@]6(C)C[C@H](O)[C@H](O[C@@H]7O[C@H](CO)[C@@H](O)[C@H](O)[C@H]7O)[C@@](C)(CO)[C@@H]6CC[C@@]5(C)[C@]3(C)C[C@H]4O)OC[C@H](O)[C@@H]2O)[C@H](O)[C@H](O)[C@H]1O[C@@H]1OC[C@@H](O)[C@H](O[C@@H]2OC[C@](O)(CO)[C@H]2O)[C@H]1O [Polygalacin D, polygalacin D]	–	–	164%	superior effect of enhancing the activity of dermal papilla cells	26%	superior effect of inhibiting androgenic activity	293%	superior Wnt signaling activity	–	–	–
CC(C)C1=CC(=O)C(C)(C2C(O)CC3(C)C4CC=C5C(CCC(OC6OC(CO)C(O)C(O)C6OC6OC(C)C(O)C(O)C6O)C5(C)C)C4(C)C(=O)CC23C)O1 (centres unmarked) [Picfeltarraenin IB, picfeltarraenin IB]	–	–	139%	superior effect of enhancing the activity of dermal papilla cells	–	–	–	–	–	–	–
Nc1cc(N2CCCCC2)nc(N)[n+]1[O-] [Minoxidil, 2,4-diamino-6-piperidinopyrimidine 3-oxide, reference compound]	–	–	–	–	–	–	–	–	129%	121%	82%
CC(C)=CCC[C@](C)(O)[C@H]1CC[C@]2(C)[C@@H]1[C@H](O)C[C@@H]1[C@@]3(C)CC[C@H](O)C(C)(C)[C@@H]3[C@@H](O[C@@H]3O[C@H](CO)[C@@H](O)[C@H](O)[C@H]3O[C@@H]3OC[C@@H](O)[C@H](O)[C@H]3O)C[C@]12C [Notoginsenoside R2, notoginsenoside R2]	117%	superior effect of enhancing the mitochondrial activity	131%	superior effect of enhancing the activity of dermal papilla cells	29%	superior effect of inhibiting androgenic activity	–	–	–	–	–
C[C@@H]1CC[C@]2(C(=O)O)CC[C@]3(C)C(=CC[C@@H]4[C@@]5(C)CC[C@H](O[C@@H]6OC[C@H](O)[C@H](O)[C@H]6O)C(C)(C)[C@@H]5CC[C@]43C)[C@@H]2[C@]1(C)O [Ziyuglycoside II, ziyuglycoside II]	105%	superior effect of enhancing the mitochondrial activity	139%	superior effect of enhancing the activity of dermal papilla cells	–	–	–	–	–	–	–
CC1(C)CC[C@]2(C(=O)O)CC[C@]3(C)C(=CC[C@@H]4[C@@]5(C)CC[C@H](O[C@@H]6O[C@H](C(=O)O)[C@@H](O)[C@H](O[C@@H]7OC[C@@H](O)[C@H](O)[C@H]7O)[C@H]6O)C(C)(C)[C@@H]5CC[C@]43C)[C@@H]2C1 [Momordin Ic, momordin Ic]	120%	superior effect of enhancing the mitochondrial activity	148%	superior effect of enhancing the activity of dermal papilla cells	12%	–	370%	superior Wnt signaling activity	–	–	–
asiaticoside B	151%	superior effect of enhancing the mitochondrial activity	131%	superior effect of enhancing the activity of dermal papilla cells	6%	–	–	–	–	–	–
CC(C)(O)[C@H]1CC[C@@](C)([C@H]2CC[C@]3(C)[C@@H]2[C@H](O)C[C@@H]2[C@@]4(C)CC[C@H](O)C(C)(C)[C@@H]4[C@@H](O[C@@H]4O[C@H](CO)[C@@H](O)[C@H](O)[C@H]4O)C[C@]23C)O1 [Pseudoginsenoside RT5, pseudoginsenoside RT5]	112%	superior effect of enhancing the mitochondrial activity	141%	superior effect of enhancing the activity of dermal papilla cells	8%	–	120%	superior Wnt signaling activity	–	–	–
C[C@@H]1O[C@@H](O[C@H]2[C@H](OC(=O)[C@]34CCC(C)(C)C[C@H]3C3=CC[C@@H]5[C@@]6(C)C[C@H](O)[C@H](O[C@@H]7O[C@H](CO)[C@@H](O)[C@H](O[C@@H]8O[C@H](CO)[C@@H](O)[C@H](O)[C@H]8O)[C@H]7O)C(CO)(CO)[C@@H]6CC[C@@]5(C)[C@]3(C)C[C@H]4O)OC[C@H](O)[C@@H]2O)[C@H](O)[C@H](O)[C@H]1O[C@@H]1OC[C@@H](O)[C@H](O[C@@H]2OC[C@](O)(CO)[C@H]2O)[C@H]1O [Platycodin D2, platycodin D2]	–	–	162%	superior effect of enhancing the activity of dermal papilla cells	16%	superior effect of inhibiting androgenic activity	216%	superior Wnt signaling activity	–	–	–

Reference: US12678387B2, “Composition for alleviating hair loss or promoting hair growth” (LG HOUSEHOLD & HEALTH CARE LTD., priority 2020, dated 2026)
